According to the NIST ThermoML archive (doi:10.1021/je8003723):

How the values were obtained:
[1] = 308.15 K, 101.3 kPa, Liquid; for viscosity: Capillary tube (Ostwald / Ubbelohde) method; for mass density: Pycnometric method; for speed of sound: Sing-around technique in a fixed-path interferometer
[2] = xn = mol fraction of the nth substance listed; details: 308.15 K, 101 kPa, Liquid; for viscosity: Capillary tube (Ostwald / Ubbelohde) method; for mass density: Pycnometric method; for speed of sound: Sing-around technique in a fixed-path interferometer

CC(=O)CC(C)C [4-methylpentan-2-one]
[1]
Details	mass density [kg/m3]	speed of sound [m/s]	viscosity [mPa·s]
–	786.8	1150	0.455

CC(=O)CC(C)C [4-methylpentan-2-one] + N#CCc1ccccc1
[2], x2 = 0
Details	mass density [kg/m3]	speed of sound [m/s]	viscosity [mPa·s]
–	786.8	1150	0.455

N#CCc1ccccc1 [benzeneacetonitrile]
[1]
Details	mass density [kg/m3]	speed of sound [m/s]	viscosity [mPa·s]
–	1003.2	1518	1.585

N#CCc1ccccc1 [benzeneacetonitrile] + CC(=O)CC(C)C
[2]
Details	mass density [kg/m3]	speed of sound [m/s]	viscosity [mPa·s]
x1 = 0.0271	792.5	1166	0.475
x1 = 0.16	823.3	1212	0.573
x1 = 0.2926	852.2	1261	0.679
x1 = 0.3931	874.6	1298	0.775
x1 = 0.5217	902.8	1340	0.91
x1 = 0.6436	928.9	1382	1.049
x1 = 0.7407	949.8	1414	1.164
x1 = 0.8599	976	1459	1.338
x1 = 0.9758	998.1	1498	1.523
x1 = 1	1003.2	1518	1.585

N#CCc1ccccc1 [benzeneacetonitrile] + CCC(=O)CC
[2]
Details	mass density [kg/m3]	speed of sound [m/s]	viscosity [mPa·s]
x1 = 0.0235	806	1199	0.388
x1 = 0.1407	835.4	1237	0.474
x1 = 0.2569	861.5	1278	0.567
x1 = 0.358	883.3	1314	0.665
x1 = 0.4803	909	1354	0.79
x1 = 0.6048	933.7	1397	0.936
x1 = 0.6943	951.2	1421	1.064
x1 = 0.8378	976.7	1471	1.281
x1 = 0.9722	998.9	1496	1.528
x1 = 1	1003.2	1518	1.585

N#CCc1ccccc1 [benzeneacetonitrile] + CCC(C)=O
[2]
Details	mass density [kg/m3]	speed of sound [m/s]	viscosity [mPa·s]
x1 = 0.0205	796.1	1167	0.334
x1 = 0.1218	825.9	1208	0.412
x1 = 0.2283	854	1265	0.497
x1 = 0.3188	876.8	1308	0.583
x1 = 0.4403	905.5	1356	0.72
x1 = 0.5655	931.3	1397	0.868
x1 = 0.6706	950.7	1421	1.015
x1 = 0.8086	974.1	1454	1.228
x1 = 0.9657	998.1	1497	1.498
x1 = 1	1003.2	1518	1.585

N#CCc1ccccc1 [benzeneacetonitrile] + CCCC(C)=O
[2]
Details	mass density [kg/m3]	speed of sound [m/s]	viscosity [mPa·s]
x1 = 0.0221	797	1189	0.41
x1 = 0.1416	826.8	1228	0.495
x1 = 0.2622	856	1271	0.6
x1 = 0.3564	877.5	1313	0.685
x1 = 0.4811	904.2	1363	0.819
x1 = 0.6125	931.5	1394	0.976
x1 = 0.7133	950.9	1418	1.1
x1 = 0.8389	974.8	1456	1.29
x1 = 0.9736	998.6	1499	1.509
x1 = 1	1003.2	1518	1.585

CCC(C)=O [butanone]
[1]
Details	mass density [kg/m3]	speed of sound [m/s]	viscosity [mPa·s]
–	789.2	1157	0.316

CCC(C)=O [butanone] + N#CCc1ccccc1
[2], x2 = 0
Details	mass density [kg/m3]	speed of sound [m/s]	viscosity [mPa·s]
–	789.2	1157	0.316

CCCC(C)=O [pentan-2-one]
[1]
Details	mass density [kg/m3]	speed of sound [m/s]	viscosity [mPa·s]
–	790.8	1179	0.394

CCCC(C)=O [pentan-2-one] + N#CCc1ccccc1
[2], x2 = 0
Details	mass density [kg/m3]	speed of sound [m/s]	viscosity [mPa·s]
–	790.8	1179	0.394

CCC(=O)CC [pentan-3-one]
[1]
Details	mass density [kg/m3]	speed of sound [m/s]	viscosity [mPa·s]
–	800	1185	0.371

CCC(=O)CC [pentan-3-one] + N#CCc1ccccc1
[2], x2 = 0
Details	mass density [kg/m3]	speed of sound [m/s]	viscosity [mPa·s]
–	800	1185	0.371
